From ChEMBL document CHEMBL1255343, “Activities of daptomycin and comparative antimicrobials, singly and in combination, against extracellular and intracellular Staphylococcus aureus and its stable small-colony variant in human monocyte-derived macrophages and in broth” (2008)
Converted amounts (≈) assume the structure as drawn. The source made the active and inactive calls. The rule behind the calls is not given here.

Legend:
Staphylococcus aureus [1] = experiment: Antimicrobial activity against Staphylococcus aureus 2546; assay type: functional
Staphylococcus aureus [2] = experiment: Antimicrobial activity against Staphylococcus aureus 2547 small colony variants; assay type: functional
Staphylococcus aureus [3] = experiment: Antimicrobial activity against Staphylococcus aureus 2548; assay type: functional
Staphylococcus aureus [4] = experiment: Antimicrobial activity against Staphylococcus aureus 2549 small colony variants; assay type: functional
Staphylococcus aureus [5] = experiment: Antimicrobial activity against intracellular Staphylococcus aureus 2548 infected in human monocyte-derived macrophages after 48 hrs; assay type: functional, organism-based
Staphylococcus aureus [6] = experiment: Antimicrobial activity against extracellular Staphylococcus aureus 2546 after 4 hrs in MH-II broth; assay type: functional, organism-based
Staphylococcus aureus [7] = experiment: Antimicrobial activity against extracellular Staphylococcus aureus 2548 after 4 hrs in MH-II broth; assay type: functional, organism-based
Staphylococcus aureus [8] = experiment: Antimicrobial activity against extracellular Staphylococcus aureus 2549 small colony variants after 4 hrs in MH-II broth; assay type: functional, organism-based

`CCCCCCCCCC(=O)N[C@@H](Cc1c[nH]c2ccccc12)C(=O)N[C@H](CC(N)=O)C(=O)N[C@@H](CC(=O)O)C(=O)N[C@@H]1C(=O)NCC(=O)N[C@@H](CCCN)C(=O)N[C@@H](CC(=O)O)C(=O)N[C@H](C)C(=O)N[C@@H](CC(=O)O)C(=O)NCC(=O)N[C@H](CO)C(=O)N[C@@H]([C@H](C)CC(=O)O)C(=O)N[C@@H](CC(=O)c2ccccc2N)C(=O)O[C@@H]1C` gave an MIC (Staphylococcus aureus [1]) of 1 µg/mL (≈ 0.617 µM), an MIC (Staphylococcus aureus [2]) of 1 µg/mL (≈ 0.617 µM) and an MIC (Staphylococcus aureus [3]) of 1 µg/mL (≈ 0.617 µM). For the same molecule, the MIC (Staphylococcus aureus [4]) was 0.5 µg/mL (≈ 0.309 µM), the Activity (Staphylococcus aureus [5]) was “Active” and the Activity (Staphylococcus aureus [6]) was “Active”. For the same molecule, the Activity (Staphylococcus aureus [7]) was “Active” and the Activity (Staphylococcus aureus [8]) was “Active”.

`CCC[C@@H]1C[C@@H](C(=O)N[C@@H]([C@H]2O[C@H](SC)[C@H](O)[C@@H](O)[C@H]2O)[C@H](C)Cl)N(C)C1` [CLINDAMYCIN] gave an MIC (Staphylococcus aureus [1]) of 0.125 µg/mL (≈ 0.294 µM), an MIC (Staphylococcus aureus [2]) of 0.25 µg/mL (≈ 0.588 µM) and an MIC (Staphylococcus aureus [3]) of 0.06 µg/mL (≈ 0.141 µM). The MIC (Staphylococcus aureus [4]) was 0.25 µg/mL (≈ 0.588 µM).

In the case of `Cc1onc(-c2ccccc2)c1C(=O)N[C@@H]1C(=O)N2[C@@H]1SC(C)(C)[C@@H]2C(=O)O` [OXACILLIN], the MIC (Staphylococcus aureus [1]) is reported as 0.25 µg/mL (≈ 0.623 µM), the MIC (Staphylococcus aureus [2]) is reported as 0.5 µg/mL (≈ 1.25 µM) and the MIC (Staphylococcus aureus [3]) is reported as 0.25 µg/mL (≈ 0.623 µM). The MIC (Staphylococcus aureus [4]) was 0.5 µg/mL (≈ 1.25 µM).

With `CO[C@H]1/C=C/O[C@@]2(C)Oc3c(C)c(O)c4c(O)c(c(/C=N/N5CCN(C)CC5)c(O)c4c3C2=O)NC(=O)/C(C)=C\C=C\[C@H](C)[C@H](O)[C@@H](C)[C@@H](O)[C@@H](C)[C@H](OC(C)=O)[C@@H]1C` [RIFAMPIN] the MIC (Staphylococcus aureus [1]) was 0.125 µg/mL (≈ 0.152 µM), the MIC (Staphylococcus aureus [2]) was 0.06 µg/mL (≈ 0.0729 µM) and the MIC (Staphylococcus aureus [3]) was 0.125 µg/mL (≈ 0.152 µM). For the same molecule, the MIC (Staphylococcus aureus [4]) was 0.06 µg/mL (≈ 0.0729 µM) and the Activity (Staphylococcus aureus [5]) was “Active”.

Molecule GENTAMICIN has an MIC (Staphylococcus aureus [1]) of 2 µg/mL, an MIC (Staphylococcus aureus [2]) of 4 µg/mL and an MIC (Staphylococcus aureus [3]) of 8 µg/mL. The MIC (Staphylococcus aureus [4]) was 16 µg/mL, the Activity (Staphylococcus aureus [5]) was “Active” and the Activity (Staphylococcus aureus [6]) was “Active”. The Activity (Staphylococcus aureus [7]) was “Active” and the Activity (Staphylococcus aureus [8]) was “Active”.
